Data set [1] deals with rat uterine decidualization. The experiment in a line: Rat decidualization assay. The note with it: ovariectomized rats, s.c.; for Estimated average EC50: average of dose-response curves; for EC50: uterine wet weight (decidual response), individual studies.
Another data set has as its system T47D cells. The experiment in a line: T47D cell proliferation assay (BrdU incorporation). It counts as cell-based. Conditions: decrease in trimegestone induced BrdU incorporation, individual experiments. The procedure:
3. T47D Cell Proliferation Assay
The objective of this assay is the determination of progestational and antiprogestational potency by using a cell proliferation assay in T47D cells. A compound's effect on DNA synthesis in T47D cells is measured.
DMEM:F12(1:1) (GIBCO, BRL) supplemented with 10% (v/v) fetal bovine serum (not heat-inactivated), 100 U/ml penicillin, […], and 2 mM GlutaMax (GIBCO, BRL).
Minimum Essential Medium (MEM) (#51200-038GIBCO, BRL) phenol red-free supplemented with 0.5% charcoal stripped fetal bovine serum, 100 U/ml penicillin, […] streptomycin, and 2 mM GlutaMax (GIBCO, BRL). […]
At the end of BrdU labeling, the medium is removed and BrdU incorporation is measured using a cell proliferation ELISA kit (#RPN 250, Amersham Life Science) according to manufacturer's instructions. […] Then 25 μl of 1 M sulfuric acid is added to each well to stop color reaction and optical density is read in a plate reader at 450 nm within 5 min.
Square root-transformed data are used for analysis of variance and nonlinear dose response curve fitting for both agonist and antagonist modes. […] EC50 or IC50 values are calculated from the retransformed values.
Trimegestone and medroxyprogesterone acetate (MPA) are reference progestins and RU486 is the reference antiprogestin. All reference compounds are run in fill dose-response curves and the EC50 or IC50 values are calculated.

The structures appear in SMILES notation. Several values for one entry are separate records, joined by “and”; a condition that tells them apart may be missing. Equal entries are not always repeated.

A word on the melting point: it is the temperature of the solid-liquid transition. The term IC50 denotes the concentration that gives 50% inhibition. The low end stands for inhibition by little substance, the high end for a need for much substance.

As to `C#C[C@]1(O)CC[C@H]2[C@@H]3CCC4=CC(=O)CC[C@@H]4[C@H]3C(=C)C[C@@]21CC` [3-Ketodesogestrel, 3-ketodesogestrel], in data set [1], the “Estimated average EC50” value was 0.10 mg/kg. s.c; the EC50 is 0.10 mg/kg, s.c. and 0.06 mg/kg, s.c. and 0.11 mg/kg, s.c.
Turning to `CCC1C(=O)Nc2ccc(-c3cccc(Cl)c3)cc21` (stereo not shown) [Example 6, 5-(3Chloro-phenyl)-3-ethyl-1,3-dihydro-indol-2-one], the melting point lay in the range of 100 to 101 °C.
The same measure, in the same setting: then `O=C1CCC(c2cc(F)cc(Br)c2)CC12CNc1ccccc12` (stereo not shown) [Example 28, 5-(3-Bromo-5-fluorophenyl)spiro[cyclohexane-1,3-[3H]indol]-2(1′H)-one], with 194 to 196 °C.
As to `C#C[C@]1(O)CC[C@H]2[C@@H]3CCC4=CC(=O)CC[C@@H]4[C@H]3CC[C@@]21CC` [Levonorgestrel, levonorgestrel], in data set [1], the “Estimated average EC50” value was 0.10 mg/kg. s.c; the EC50 is 0.08 mg/kg, s.c. and 0.12 mg/kg, s.c. and 0.09 mg/kg, s.c. (2×).
Consider `CC#C[C@]1(O)CC[C@H]2[C@@H]3CCC4=CC(=O)CCC4=C3[C@@H](c3ccc(N(C)C)cc3)C[C@@]21C` [RU486], for which, in the data set on T47D cells, the IC50 was 0.016 nM and 0.018 nM.
